Drawing on patent US10428087B2, “Pyrimidinones as PI3K inhibitors” (Incyte Corporation, priority 2009, dated 2019), this text covers IC50 for 27 compounds.

Each structure is given as a SMILES string. Where a name gives a salt, the structure may show the parent alone. Some results are limits rather than exact numbers.

By IC50 is commonly meant the concentration needed to halve the response being measured.

The subject of this experiment is Pfeiffer cell line (diffuse large B cell lymphoma). Kind of experiment: Pfeiffer cell proliferation assay (Example B2). As to conditions: Homo sapiens, Pfeiffer, Pfeiffer cells, [3H]-thymidine. The format is cell-based. As for the experimental part:
Pfeiffer cell line (diffuse large B cell lymphoma) was purchased from ATCC (Manassas, Va.) and maintained in the culture medium recommended (RPMI and 10% FBS). To measure the anti-proliferation activity of the PI3Kδ submittals, the Pfeiffer cells were plated with the culture medium (2×10^3 cells/well/per 200 μl) into 96-well ultra-low binding plates (Corning, Corning, N.Y.), in the presence or absence of a concentration range of test compounds. After 3-4 days, [^3H]-thymidine (1 μCi/well) (PerkinElmer, Boston, Mass.) in PBS was then added to the cell culture for an additional 12 hrs before the incorporated radioactivity was separated by filtration with water through GF/B filters (Packard Bioscience, Meridenj, Conn.) and measured by liquid scintillation counting with a TopCount (Packard Bioscience). See Table 3 for data related to compounds of the invention.
In turn, `Cc1csc2nc(C(C)Nc3ncnc4[nH]cnc34)c(-c3cc(F)ccc3F)c(=O)n12` (stereo not drawn) [Example 45, 6-(2,5-difluorophenyl)-3-methyl-7-[1-(9H-purin-6-ylamino)ethyl]-5H-[1,3]thiazolo[3,2-a]pyrimidin-5-one trifluoroacetic acid salt] returned a half-maximal inhibitory concentration (IC50) of 50 to 100 nM.

Regarding `Cc1csc2nc([C@H](C)Nc3ccnc4[nH]cnc34)c(-c3cccc(F)c3)c(=O)n12` [Example 46, 6-(3-Fluorophenyl)-7-[(1S)-1-(3H-imidazo[4,5-b]pyridin-7-ylamino)ethyl]-3-methyl-5H-[1,3]thiazolo[3,2-a]pyrimidin-5-one], the half-maximal inhibitory concentration (IC50) is less than 50 nM.

As to `CC(Nc1ncnc2[nH]cnc12)c1nc2scc(C(F)(F)F)n2c(=O)c1-c1cccc(F)c1` (stereo not drawn) [Example 48, 6-(3-Fluorophenyl)-7-[1-(9H-purin-6-ylamino)ethyl]-3-(trifluoromethyl)-5H-[1,3]thiazolo[3,2-a]pyrimidin-5-one], the IC50 fell in the range of 50 to 100 nM.

With `Cc1cccc2nc(C(C)Nc3ncnc4[nH]cnc34)c(-c3ccccc3)c(=O)n12` (stereo not drawn) [Example 49, 6-Methyl-3-phenyl-2-[1-(9H-purin-6-ylamino)ethyl]-4H-pyrido[1,2-a]pyrimidin-4-one trifluoroacetic acid salt], the IC50 fell in the range of 50 to 100 nM.

`Cc1cccc2nc(C(C)Nc3nc(N)nc4[nH]cnc34)c(-c3ccccc3)c(=O)n12` (stereo not drawn) [Example 50, 2-{1-[(2-Amino-9H-purin-6-yl)amino]ethyl}-6-methyl-3-phenyl-4H-pyrido[1,2-a]pyrimidin-4-one trifluoroacetic acid salt]: the IC50 was less than 50 nM.

As to `Cc1cccc(-c2c(C(C)Nc3ncnc4[nH]cnc34)nc3cccc(C)n3c2=O)c1` (stereo not drawn) [Example 51, 6-Methyl-3-(3-methylphenyl)-2-[1-(9H-purin-6-ylamino)ethyl]-4H-pyrido[1,2-a]pyrimidin-4-one trifluoroacetic acid salt], the half-inhibitory concentration (IC50) was 100 to 500 nM.

In the case of `Cc1cccc(-c2c(C(C)Nc3nc(N)nc4[nH]cnc34)nc3cccc(C)n3c2=O)c1` (stereo not drawn) [Example 52, 2-{1-[(2-Amino-9H-purin-6-yl)amino]ethyl}-6-methyl-3-(3-methylphenyl)-4H-pyrido[1,2-a]pyrimidin-4-one trifluoroacetic acid salt], the IC50 fell in the range of 50 to 100 nM.

In the case of `Cc1cccc2nc(C(C)Nc3ncnc4[nH]cnc34)c(-c3cccc(Cl)c3)c(=O)n12` (stereo not drawn) [Example 53, 3-(3-Chlorophenyl)-6-methyl-2-[1-(9H-purin-6-ylamino)ethyl]-4H-pyrido[1,2-a]pyrimidin-4-one trifluoroacetic acid salt], the IC50 fell in the range of 50 to 100 nM.

On to `Cc1cccc2nc(C(C)Nc3nc(N)nc4[nH]cnc34)c(-c3cccc(Cl)c3)c(=O)n12` (stereo not drawn) [Example 54, 2-{1-[(2-Amino-9H-purin-6-yl)amino]ethyl}-3-(3-chlorophenyl)-6-methyl-4H-pyrido[1,2-a]pyrimidin-4-one trifluoroacetic acid salt], for which the IC50 was 50 to 100 nM.

Turning to `Cc1cccc2nc(C(C)Nc3ncnc4[nH]cnc34)c(-c3ccccc3Cl)c(=O)n12` (stereo not drawn) [Example 57, 3-(2-Chlorophenyl)-6-methyl-2-[1-(9H-purin-6-ylamino)ethyl]-4H-pyrido[1,2-a]pyrimidin-4-one trifluoroacetic acid salt], the IC50 was 50 to 100 nM.

For the compound `Cc1cccc2nc(C(C)Nc3nc(N)nc4[nH]cnc34)c(-c3ccccc3Cl)c(=O)n12` (stereo not drawn) [Example 58, 2-{1-[(2-Amino-9H-purin-6-yl)amino]ethyl}-3-(2-chlorophenyl)-6-methyl-4H-pyrido[1,2-a]pyrimidin-4-one trifluoroacetic acid salt], the concentration for half-maximal inhibition (IC50) is less than 50 nM.

For `Cc1cccc2nc(C(C)Nc3ncnc4[nH]cnc34)c(-c3ccccc3F)c(=O)n12` (stereo not drawn) [Example 59, 3-(2-Fluorophenyl)-6-methyl-2-[1-(9H-purin-6-ylamino)ethyl]-4H-pyrido[1,2-a]pyrimidin-4-one trifluoroacetic acid salt], the IC50 was in the range of 100 to 500 nM.

`Cc1cccc2nc(C(C)Nc3nc(N)nc4[nH]cnc34)c(-c3ccccc3F)c(=O)n12` (stereo not drawn) [Example 60, 2-{1-[(2-Amino-9H-purin-6-yl)amino]ethyl}-3-(2-fluorophenyl)-6-methyl-4H-pyrido[1,2-a]pyrimidin-4-one trifluoroacetic acid salt] registered a concentration for half-maximal inhibition (IC50) of 50 to 100 nM.

Consider `Cc1cccc2nc(C(C)Nc3nc(N)nc4[nH]cnc34)c(-c3ccc(C#N)cc3)c(=O)n12` (stereo not drawn) [Example 62, 4-(2-{1-[(2-Amino-9H-purin-6-yl)amino]ethyl}-6-methyl-4-oxo-4H-pyrido[1,2-a]pyrimidin-3-yl)benzonitrile trifluoroacetic acid salt], for which the IC50 is 500 to 1000 nM.

For `Cc1ccccc1-c1c(C(C)Nc2ncnc3[nH]cnc23)nc2cccc(C)n2c1=O` (stereo not drawn) [Example 63, 6-Methyl-3-(2-methylphenyl)-2-[1-(9H-purin-6-ylamino)ethyl]-4H-pyrido[1,2-a]pyrimidin-4-one trifluoroacetic acid salt], the IC50 was 100 to 500 nM.

`Cc1ccc(-c2c(C(C)Nc3ncnc4[nH]cnc34)nc3cccc(C)n3c2=O)cc1` (stereo not drawn) [Example 64, 6-Methyl-3-(4-methylphenyl)-2-[1-(9H-purin-6-ylamino)ethyl]-4H-pyrido[1,2-a]pyrimidin-4-one trifluoroacetic acid salt] gave an IC50 of 50 to 100 nM.

Compound `COc1cccc(-c2c(C(C)Nc3ncnc4[nH]cnc34)nc3cccc(C)n3c2=O)c1` (stereo not drawn) [Example 65, 3-(3-Methoxyphenyl)-6-methyl-2-[1-(9H-purin-6-ylamino)ethyl]-4H-pyrido[1,2-a]pyrimidin-4-one trifluoroacetic acid salt] registered an IC50 of 50 to 100 nM.

The compound `Cc1cccc2nc(C(C)Nc3ncnc4[nH]cnc34)c(-c3cccc(F)c3F)c(=O)n12` (stereo not drawn) [Example 66, 3-(2,3-Difluorophenyl)-6-methyl-2-[1-(9H-purin-6-ylamino)ethyl]-4H-pyrido[1,2-a]pyrimidin-4-one trifluoroacetic acid salt] had a half-inhibitory concentration (IC50) of 100 to 500 nM.

The compound `Cc1cccc2nc(C(C)Nc3ncnc4[nH]cnc34)c(-c3cc(F)ccc3F)c(=O)n12` (stereo not drawn) [Example 67, 3-(2,5-Difluorophenyl)-6-methyl-2-[1-(9H-purin-6-ylamino)ethyl]-4H-pyrido[1,2-a]pyrimidin-4-one trifluoroacetic acid salt] came in with a half-maximal inhibitory concentration (IC50) of 50 to 100 nM.

For `Cc1cccc2nc(C(C)Nc3ncnc4[nH]cnc34)c(-c3ccc(F)c(F)c3)c(=O)n12` (stereo not drawn) [Example 68, 3-(3,4-Difluorophenyl)-6-methyl-2-[1-(9H-purin-6-ylamino)ethyl]-4H-pyrido[1,2-a]pyrimidin-4-one trifluoroacetic acid salt], the IC50 fell in the range of 500 to 1000 nM.

On to `Cc1cccc2nc(C(C)Nc3ncnc4[nH]cnc34)c(-c3cc(F)cc(F)c3)c(=O)n12` (stereo not drawn) [Example 69, 3-(3,5-Difluorophenyl)-6-methyl-2-[1-(9H-purin-6-ylamino)ethyl]-4H-pyrido[1,2-a]pyrimidin-4-one trifluoroacetic acid salt], for which the IC50 is 50 to 100 nM.

In the case of `CCc1cccc2nc(C(C)Nc3ncnc4[nH]cnc34)c(-c3cc(F)cc(F)c3)c(=O)n12` (stereo not drawn) [Example 76, 3-(3,5-Difluorophenyl)-6-ethyl-2-[1-(9H-purin-6-ylamino)ethyl]-4H-pyrido[1,2-a]pyrimidin-4-one trifluoroacetic acid salt], the concentration for half-maximal inhibition (IC50) is 100 to 500 nM.

On to `CCc1cccc2nc(C(C)Nc3nc(N)nc4[nH]cnc34)c(-c3cc(F)cc(F)c3)c(=O)n12` (stereo not drawn) [Example 77, 2-{1-[(2-Amino-9H-purin-6-yl)amino]ethyl}-3-(3,5-difluorophenyl)-6-ethyl-4H-pyrido[1,2-a]pyrimidin-4-one trifluoroacetic acid salt], for which the concentration for half-maximal inhibition (IC50) is less than 50 nM.

Consider `CCc1cccc2nc(C(C)Nc3ncnc4[nH]cnc34)c(-c3ccc(F)cc3)c(=O)n12` (stereo not drawn) [Example 78, 6-Ethyl-3-(4-fluorophenyl)-2-[1-(9H-purin-6-ylamino)ethyl]-4H-pyrido[1,2-a]pyrimidin-4-one trifluoroacetic acid salt], for which the IC50 fell in the range of 100 to 500 nM.

Consider `CC(Nc1nc(N)nc2[nH]cnc12)c1nc2ccccn2c(=O)c1-c1cc(F)cc(F)c1` (stereo not drawn) [Example 80, 2-{1-[(2-Amino-9H-purin-6-yl)amino]ethyl}-3-(3,5-difluorophenyl)-4H-pyrido[1,2-a]pyrimidin-4-one trifluoroacetic acid salt], for which the half-inhibitory concentration (IC50) fell in the range of 100 to 500 nM.

Regarding `Cc1cccc2nc(C(C)Nc3ncnc4[nH]cnc34)c(-c3cccc(C#N)c3)c(=O)n12` (stereo not drawn) [Example 83, 3-{6-Methyl-4-oxo-2-[1-(9H-purin-6-ylamino)ethyl]-4H-pyrido[1,2-a]pyrimidin-3-yl}benzonitrile trifluoroacetic acid salt], the IC50 lay within 100 to 500 nM.

As to `Cc1cccc2nc(C(C)Nc3nc(N)nc4[nH]cnc34)c(-c3cccc(C#N)c3)c(=O)n12` (stereo not drawn) [Example 84, 3-(2-{1-[(2-Amino-9H-purin-6-yl)amino]ethyl}-6-methyl-4-oxo-4H-pyrido[1,2-a]pyrimidin-3-yl)benzonitrile trifluoroacetic acid salt], the half-maximal inhibitory concentration (IC50) lay within 100 to 500 nM.
